Where two headings read alike, the source gives them in different places. Non-standard residues stand in square brackets, D forms with d. Residues, ends and D or L forms follow the SMILES beside them. d1Nal = N[C@H](Cc1cccc2ccccc12)C(=O)O
Experiments:
[1] = test system: eye of New Zealand White rabbits; test: Rabbit primary eye irritation test (Draize); assay type: in vivo
Protocol: XMP.629 was evaluated in a rabbit primary eye irritation test for potential ocular irritant and/or corrosive effects when topically applied to the eye of three New Zealand White rabbits.
All animals received 0.1 mL of a 2% solution XMP.629 in 10 mM sodium acetate instilled into the right conjunctival sac and left in place for 24 hours. The control eye was untreated. The treated eye was washed out with 100 mL of lukewarm water for one to two minutes at approximately 24 hours post-dose. The treated and control eyes were examined at approximately 1, 24, 48, and 72 hours post-dose and on days 5, 8, and 15 for ocular irritation using the standard Draize scoring system (Draize et al., 1944, supra). Sodium fluorescein and ultraviolet light was used to examine for possible corneal injury.

[2] = 0.1, 0.5, or 1% gel on 15% BSA; limit of quantification 1 ng/mL
[3] = test system: albino hairless guinea pigs Crl:IAF(HA)-hrBR (Outbred); test: Photosafety study: primary irritancy, phototoxicity, contact hypersensitivity, photoallergy; assay type: in vivo, guinea pig; details: XMP.629 up to 10 mg/mL (1.0%)
Protocol: XMP.629 was evaluated for photoallergic potential administered topically to hairless guinea pigs. Primary irritancy, phototoxicity (photoirritancy) and contact hypersensitivity were also evaluated in these studies.
Male CrI:IaF(HA)-hrBR (Outbred) albino hairless guinea pigs were assigned to 7 groups, five guinea pigs per group as outlined below.
XMP.629 was formulated as a gel. The phototoxicity comparator article was 8-methoxypsoralen (8-MOP) in methanol at concentrations of 0.1, 0.3 and 1.0 mg/mL. The contact hypersensitivity and photoallergy comparator article was 3,3′,4′,5′-tetrachlorosalicy/anilide (TCSA) in acetone:corn oil (4:1, v/v) at challenge concentrations of 0 (Vehicle), 10, and 30 mg/mL. The reagent and reagent vehicle were Freund's complete adjuvant (FCA) and sterile water for injection, USP, respectively.
The formulation administration and ultraviolet radiation (UVR) exposure regimens for each group in the study were as follows.
For all phases of the study, test articles, test article vehicles, comparator articles and comparator article vehicles were administered (0.3 ml) using a Hilltop chamber affixed to the guinea pig with dental dam overlaid with a Velcro® wrap for approximately 2.0 hours per administration.
Primary irritancy potential of the test articles and test article vehicles was evaluated in Group 1 guinea pigs. Three chambers (one per formulation dosage) were attached to the dorsal skin along the midline. After the administration period the chamber patches were removed and the application sites were gently wiped.
Cutaneous phototoxicity potential of the test articles and test article vehicles was evaluated in Group 2 guinea pigs. Group 3 guinea pigs were used as a comparator group with elicitation of phototoxicity with 8-MOP. Three chambers (one per formulation dosage) were attached to the dorsal skin along the midline and occluded. After the administration period the chamber patches were removed and the application sites were gently wiped. After wiping, Group 2 and 3 guinea pigs were exposed to solar-simulated UVR for approximately 2.25 hours.
For induction of contact hypersensitivity and photoallergy, a nuchal area of skin approximately 2.5 cm^2 was defined by intradermal injections with a formulation of sterile water and FCA in guinea pigs in Groups 4 through 7 under isoflurane/oxygen anesthesia. This skin area was then tape stripped five times. Formulations were topically administered via chambers as described in the study design table using one chamber attached to the nuchal area. After removal of the chambers the application sites were gently wiped and the nuchal site of Group 6 and 7 guinea pigs was exposed to UVR as above. Appropriate procedures for guinea pigs (with the exception of injection with FCA) were repeated once daily on Days 3, 5, 8, 10 and 12 of the induction phase.
On Day 22 (contact hypersensitivity and photoallergy challenge), formulations were topically applied to appropriate sites on guinea pigs in Groups 4 through 7 as described above. Three chambers (one per formulation dosage) were attached to the dorsal skin along the midline and occluded. The chambers were then removed and the application sites were gently wiped. Guinea pigs in Groups 6 and 7 were then exposed to UVR as above.
Observations for general appearance and clinical signs were made weekly throughout the study. […] Body weights were recorded at initiation of dosing for each phase, weekly thereafter and at sacrifice. […]

[4] = test system: protease; test: Resistance to protease degradation
Protocol: In additional studies, a variety of formulations of XMP.629 were tested for stability under various temperatures, such as 25° C., 40° C., and 50° C., and at various time points, such as 0.5, 1, and 2 months.

[5] = test system: Salmonella typhimurium TA98, TA100, TA1535, TA1537 and Escherichia coli WP2uvrA; test: Ames test: Salmonella-Escherichia coli/mammalian-microsome reverse mutation assay; assay type: cell-based; details: with and without S9
Protocol: XMP.629 was evaluated in an initial mutagenicity assay. In this Salmonella-Escherchia coli/mammalian-microsome reverse mutation assay, XMP.629 was evaluated for the ability to induce reverse mutations at the histidine locus in four tester strains of Salmonella-typhimurium (TA98, TA100, TA1535 and TA1537) and at the tryptophan locus in Escherichia coli tester strain, WP2uvrA, in the presence or absence of an exogenous metabolic activation system ([…]). The experimental materials, methods and procedures were based on those described by Ames et al., 1975 (Mutat. Res. 31; 347-364) and Green and Muriel, 1976 (Mutat. Res. 38: 3-32). The assay design was based on the OECD Guideline 471, updated and adopted Jul. 21, 1997. Based on the results of an initial dose rangefinding study, XMP.629 was evaluated using (a) four standard Salmonella tester strains with the rat hepatic S9 (microsomal) fraction at doses of 1.00, 3.33, 10.0, 33.3, 66.7 and 100 μg/plate, and without S9 at doses of 1.00, 3.33, 10.0, 25.0, 33.3 and 66.7 μg/plate; and (b) tester strain WP2uvrA with S9 at doses of 3.33, 10.0, 33.3, 100, 250 and 333 μg/plate and without S9 at doses of 1.00, 3.33, 10.0, 33.3, 66.7 and 100 μg/plate. XMP.629 was re-evaluated in an independent confirmatory experiment under similar conditions at lower doses.
In addition, the test article was freely soluble at all doses evaluated with and without S9. […]

[6] = test system: Staphylococcus aureus
[7] = test system: Streptococcus pneumoniae

Compound: CC(C)C[C@@H](NC(=O)[C@H](N)CCCCN)C(=O)N[C@H](Cc1ccccc1)C(=O)N[C@H](CCCNC(=N)N)C(=O)N[C@H](Cc1cccc2ccccc12)C(=O)N[C@H](CCC(N)=O)C(=O)N[C@H](C)C(=O)N[C@H](CCCCN)C(=O)N[C@H](Cc1cccc2ccccc12)C(N)=O [XMP.629, NH2-lys-leu-phe-arg-(3-(1-naphthyl)-ala)-gln-ala-lys-(3-(1-naphthyl)-ala)-CONH2] (H-[dK][dL][dF][dR][d1Nal][dQ][dA][dK][d1Nal]-NH2)
- ocular irritation, overall ([1]; 2% XMP.629 in 10 mM sodium acetate solution): mildly irritating
- corneal opacity ([1]; 2% solution in 10 mM sodium acetate, any time point): no effects on corneal opacity
- iris, average scores ([1]; 2% solution, 48 hours post-instillation): less than 1
- plasma concentrations after topical administration [2]: no measurable plasma concentrations
- contact hypersensitivity [3]: did not cause skin changes
- photoallergy [3]: did not cause skin changes
- phototoxicity ([3]; single topical administration and UVR): did not cause skin changes
- primary irritation ([3]; single topical administration, 0.3 mL/skin site): did not cause skin changes
- protease degradation [4]: substantially resistant to protease degradation
- reverse mutation assay result [5]: negative
- Minimum Inhibitory Concentrations ([6]; Staphylococcus aureus 6258): 2.00 µg/mL
- Minimum Inhibitory Concentrations ([6]; Staphylococcus aureus 11371): 2.00 µg/mL
- Minimum Inhibitory Concentrations ([6]; Staphylococcus aureus 12598): 2.00 µg/mL
- Minimum Inhibitory Concentrations ([6]; Staphylococcus aureus 19636): 2.00 µg/mL
- Minimum Inhibitory Concentrations ([6]; Staphylococcus aureus BAA-38 (MRSA)): 2.00 µg/mL
- Minimum Inhibitory Concentrations ([7]; Streptococcus pneumoniae 6303): 8.00 µg/mL
- Minimum Inhibitory Concentrations ([7]; Streptococcus pneumoniae 10031): 8.00 µg/mL
- Minimum Inhibitory Concentrations ([7]; Streptococcus pneumoniae 35088): 2.00 µg/mL
